Test results taken from patent US20240239801A1, “PYRIMIDO[5,4,D]PYRIMIDINE COMPOUNDS, COMPOSITIONS COMPRISING THEM AND USES THEREOF” (Université de Montréal, priority 2021, published 2024).

How the values were obtained:
[1] = target: T1, BRAF (Homo sapiens, UniProt P15056); assay: BRAF kinase activity assay (ADP-Glo); assay type: biochemical
T1 construct: GST; purchased Millipore Sigma B4062-10UG
Procedure: (§1) Compound preparation: solid samples of each substances in 1dram vials were suspended in DMSO (Fisher Scientific) at a stock concentration of 20 mM. Stocks were kept at −20° C. and protected from light. If solubility of the compound at 20 mM appeared to be an issue, the initial concentration of the DMSO stock was changed to 10 mM or 5 mM.
(§2) In vitro enzymatic reactions were used for evaluating compounds intrinsic activity against BRAF, CRAF and ARAF. For BRAF and CRAF, 0.375 nM of purified GST-tagged kinases (cat #B4062-10UG and cat #R1656-10UG respectively from Millipore Sigma) were incubated with 75 nM of kinase-dead MEK1 substrate (cat #40075; BPS Bioscience) in the presence of 10 μM of Ultrapure ATP (cat #V9102; Promega; part V915A) with and without the test compound in a buffer containing 50 mM HEPES pH 7.5, 10 mM MgCl2, 1 mM EDTA, 0.01% Brij-35 and 2 mM DTT. Separate reactions were performed with the MEK1 substrate and ATP as a blank control. ARAF, kinase reactions were rigorously the same with the exception that kinase concentration was raised to 3.75 nM (cat #1768-0000-1; Reaction Biology).
(§3) For compound treatment, 5 μL/well of test substance solution are placed in a 384-well proxyplate (Perkin Elmer) and mixed with 2× concentrated kinase reactions. The dilution series is selected so that nine concentrations cover a range from 100 nM to 0.01 nM. […] The final concentration of DMSO in the assay is set at 0.05%.
(§4) BRAF and CRAF kinase reactions were carried out for a total of 2 hours at 30° C. and then stopped by ½ dilution in ADP-Glo Reagent (cat #V9102; Promega; part V912C). Reactions were then incubated for 1 h at room temperature before addition of one volume of Kinase Detection Reagent (cat #V9102; Promega; part V917A). Plates were then equilibrated at room temperature for 30 minutes before detection of luminescence on a Synergy Neo2 plate reader (Biotek). The effect of each compound dilution on BRAF and CRAF kinase activity was expressed as % inhibition and calculated as follows. First, the internal 100% inhibition control (average of luminescence in kinase reactions comprising kinase dead MEK1 substrate alone) was subtracted from each data point. The average of DMSO (vehicle) controls (set as 0% inhibition) was established and used to calculate % inhibition:
(§5) IC50 values were obtained by plotting the kinase inhibition values and fitting the dose-activity curves using a log(agonist) versus response−variable slope (four parameters) function using either GraphPadPrism (V7.0) or Dotmatics Screening Ultra platform. Standards included in the ARAF kinase assay were Belvarafenib (MedChem Express cat #HY-109080; CAS #1446113-23-0), LXH254 (MedChem Express cat #HY-112089; CAS #1800398-38-2) and BGB283 (cat #HY-18957; CAS #1446090-79-4).

[2] = target: CRAF (Homo sapiens, UniProt P04049); assay: CRAF kinase activity assay (ADP-Glo); assay type: biochemical
Procedure: as §1, §2, §3, §4, §5

[3] = test system: HCT116 pERK; assay: Phospho-ERK inhibition, AlphaLISA SureFire Ultra p-ERK 1/2; assay type: cell-based, human; conditions: for HCT116 (Ymin %): lowest value of the pERK IC50 curve
In short: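 IC50 derived by four-parameter fitting of % inhibition, with DMSO as 0% and 1 μM trametinib subtracted as background. Signal is AlphaLISA p-ERK1/2 (Thr202/Tyr204) in lysates of overnight-seeded cells (RPMI-1640, 5% FBS) treated 1 h with ten concentrations from 30 or 10 μM to 0.33 nM, 0.5% DMSO.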

[4] = Homo sapiens, HCT-116, Table 3, 1 h treatment

Sequence of CRAF (P04049 whole entry): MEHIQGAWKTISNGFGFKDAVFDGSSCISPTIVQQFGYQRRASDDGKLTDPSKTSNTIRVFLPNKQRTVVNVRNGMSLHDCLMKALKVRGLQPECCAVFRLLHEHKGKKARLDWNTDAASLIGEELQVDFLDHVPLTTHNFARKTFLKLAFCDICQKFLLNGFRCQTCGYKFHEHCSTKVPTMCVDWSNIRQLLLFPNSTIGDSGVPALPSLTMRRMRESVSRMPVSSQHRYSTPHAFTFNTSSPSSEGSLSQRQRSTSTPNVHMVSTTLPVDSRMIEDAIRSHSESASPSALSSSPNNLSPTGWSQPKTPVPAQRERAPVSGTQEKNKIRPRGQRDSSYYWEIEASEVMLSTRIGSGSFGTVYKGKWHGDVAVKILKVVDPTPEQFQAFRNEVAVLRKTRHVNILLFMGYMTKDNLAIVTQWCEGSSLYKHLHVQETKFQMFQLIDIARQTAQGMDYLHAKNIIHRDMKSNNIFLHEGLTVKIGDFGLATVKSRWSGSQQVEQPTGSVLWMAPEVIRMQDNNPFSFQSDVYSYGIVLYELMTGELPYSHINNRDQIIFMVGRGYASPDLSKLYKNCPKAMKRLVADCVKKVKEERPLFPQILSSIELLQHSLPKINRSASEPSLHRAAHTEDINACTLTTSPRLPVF
T1 sequence (P15056 whole entry): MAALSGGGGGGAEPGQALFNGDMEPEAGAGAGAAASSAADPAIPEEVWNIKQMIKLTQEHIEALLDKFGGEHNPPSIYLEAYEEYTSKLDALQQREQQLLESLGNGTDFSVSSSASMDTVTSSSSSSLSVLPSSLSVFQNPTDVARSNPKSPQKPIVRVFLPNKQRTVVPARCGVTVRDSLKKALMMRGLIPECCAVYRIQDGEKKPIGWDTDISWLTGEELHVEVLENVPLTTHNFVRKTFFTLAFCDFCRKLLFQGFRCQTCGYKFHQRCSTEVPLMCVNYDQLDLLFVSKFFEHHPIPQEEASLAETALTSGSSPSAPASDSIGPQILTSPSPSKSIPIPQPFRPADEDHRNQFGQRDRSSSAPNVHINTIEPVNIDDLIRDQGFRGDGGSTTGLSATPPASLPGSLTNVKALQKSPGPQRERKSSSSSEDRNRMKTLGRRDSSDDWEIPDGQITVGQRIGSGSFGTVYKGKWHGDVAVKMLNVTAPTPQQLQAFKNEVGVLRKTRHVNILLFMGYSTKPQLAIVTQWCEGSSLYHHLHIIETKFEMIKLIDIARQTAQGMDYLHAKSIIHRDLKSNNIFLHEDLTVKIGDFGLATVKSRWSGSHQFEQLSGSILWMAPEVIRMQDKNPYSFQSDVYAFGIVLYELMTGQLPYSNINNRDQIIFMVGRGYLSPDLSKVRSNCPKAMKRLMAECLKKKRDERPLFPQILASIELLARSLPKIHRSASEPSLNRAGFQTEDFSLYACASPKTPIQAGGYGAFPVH

SMILES | IC50 ([1]; Table 3) | IC50 ([2]; Table 3) | IC50 ([3]; Table 3, 1 h treatment) | HCT116 (Ymin %) ([3]; Table 3) | IC50 ([1]; BRAF biochemical kinase assay) | IC50 ([2]; CRAF biochemical kinase assay) | IC50 ([3]; HCT116 cells, pERK) | HCT116 pERK % Ymin (lowest value of the IC50 curve) ([3]; HCT116 cells, value in brackets, Ymin above −20% = minimal or no paradoxical induction) | IC50 [3, 4]
O=S(=O)(Nc1ccc(F)c(Nc2ncnc3cnc(-n4cnc5ccccc54)nc23)c1F)c1cccc2c1OC(F)(F)O2 [Example 150] | 1 to 10 nM | 10 to 50 nM | 1000 to 10000 nM | −8% | – | – | – | – | –
COc1ccc(S(=O)(=O)Nc2ccc(F)c(Nc3ncnc4cnc(-n5nnc6ccccc65)nc34)c2F)c(C)c1Cl [Example 117] | > 10 nM | 10 to 50 nM | 1000 to 10000 nM | −1% | – | – | – | – | –
N#CC1CCN(c2cccc3c2ncn3-c2ncc3ncnc(Nc4c(F)ccc(NS(=O)(=O)c5cccc(Cl)c5Cl)c4F)c3n2)CC1 [Example 132] | 1 to 10 nM | < 10 nM | < 500 nM | −4% | – | – | – | – | –
Cc1c(F)cccc1S(=O)(=O)Nc1ccc(F)c(Nc2ncnc3cnc(-n4cc(C(=O)N5CCC(O)CC5)c5ccccc54)nc23)c1F [Example 102] | < 1 nM | < 10 nM | 500 to 1000 nM | −9.5% | – | – | – | – | –
O=S(=O)(CC1CCOCC1)c1cn(-c2ncc3ncnc(Nc4c(F)ccc(NS(=O)(=O)c5cccc(Cl)c5Cl)c4F)c3n2)c2ccccc12 [Example 144] | 1 to 10 nM | 10 to 50 nM | < 500 nM | −9% | – | – | – | – | –
Cc1c(F)cccc1S(=O)(=O)Nc1ccc(F)c(Nc2ncnc3cnc(-n4cc(C(=O)N5CCOCC5)c5ccccc54)nc23)c1F [Example 100] | < 1 nM | 10 to 50 nM | < 500 nM | 2.2% | – | – | – | – | –
O=S(=O)(Nc1cc(F)c(F)c(Nc2ncnc3cnc(-n4cnc5ccccc54)nc23)c1F)c1cccc(Cl)c1Cl [Example 160] | – | – | – | – | 1 to 10 nM | < 10 nM | < 500 nM | −9% | –
N#CC1(c2cccc3c2nnn3-c2ncc3ncnc(Nc4c(F)ccc(NS(=O)(=O)c5cccc(Cl)c5Cl)c4F)c3n2)CC1 [Example 135] | 1 to 10 nM | < 10 nM | – | – | – | – | – | – | 500 to 1000 nM
CN(CCO)c1cccc2c1ncn2-c1ncc2ncnc(Nc3c(F)ccc(NS(=O)(=O)c4cccc(Cl)c4Cl)c3F)c2n1 [Example 134] | 1 to 10 nM | < 10 nM | < 500 nM | 8% | – | – | – | – | –
Cc1c(F)cccc1S(=O)(=O)Nc1ccc(F)c(Nc2ncnc3cnc(-n4nc(C(=O)N(C)C)c5ccccc54)nc23)c1F [Example 105] | 1 to 10 nM | > 50 nM | < 500 nM | −8.7% | – | – | – | – | –
Cc1c(F)cccc1S(=O)(=O)Nc1ccc(F)c(Nc2ncnc3cnc(-n4cc(C(=O)N(C)CCO)c5ccccc54)nc23)c1F [Example 101] | < 1 nM | < 10 nM | < 500 nM | 3.5% | – | – | – | – | –
O=S(=O)(Nc1ccc(F)c(Nc2ncnc3cnc(-n4cnc5ccccc54)nc23)c1F)c1scc(Cl)c1Cl [Example 157] | < 1 nM | < 10 nM | < 500 nM | 0% | – | – | – | – | –
CCS(=O)(=O)c1cn(-c2ncc3ncnc(Nc4c(F)ccc(NS(=O)(=O)c5cccc(Cl)c5Cl)c4F)c3n2)c2ccccc12 [Example 141] | 1 to 10 nM | 10 to 50 nM | < 500 nM | −3% | – | – | – | – | –
CCc1ccccc1S(=O)(=O)Nc1ccc(F)c(Nc2ncnc3cnc(-n4cnc5ccccc54)nc23)c1F [Example 148] | > 10 nM | 10 to 50 nM | 1000 to 10000 nM | −1% | – | – | – | – | –
CCC1(O)CCN(c2cccc3c2ncn3-c2ncc3ncnc(Nc4c(F)ccc(NS(=O)(=O)c5cccc(Cl)c5Cl)c4F)c3n2)CC1 [Example 133] | 1 to 10 nM | < 10 nM | < 500 nM | −6% | – | – | – | – | –
Cc1c(F)cccc1S(=O)(=O)Nc1ccc(F)c(Nc2ncnc3cnc(-n4nc(C(=O)N5CCN(C)CC5)c5ccccc54)nc23)c1F [Example 104] | < 1 nM | > 50 nM | – | – | – | – | – | – | < 500 nM
Cc1c(F)cccc1S(=O)(=O)Nc1ccc(F)c(Nc2ncnc3cnc(-n4nc(C(=O)N5CCC[C@H](O)C5)c5ccccc54)nc23)c1F [Example 109] | < 1 nM | 10 to 50 nM | < 500 nM | −6.5% | – | – | – | – | –
O=S(=O)(Cc1ccncc1)c1cn(-c2ncc3ncnc(Nc4c(F)ccc(NS(=O)(=O)c5cccc(Cl)c5Cl)c4F)c3n2)c2ccccc12 [Example 143] | 1 to 10 nM | 10 to 50 nM | < 500 nM | −7% | – | – | – | – | –
CCC1(O)CCN(c2cccc3c2ncn3-c2ncc3ncnc(Nc4c(F)ccc(NS(=O)(=O)c5cccc6c5OC(F)(F)O6)c4F)c3n2)CC1 [Example 151] | 1 to 10 nM | 10 to 50 nM | < 500 nM | 10% | – | – | – | – | –
Cc1cccc(S(=O)(=O)Nc2ccc(F)c(Nc3ncnc4cnc(-n5cnc6ccccc65)nc34)c2F)c1Cl [Example 152] | 1 to 10 nM | > 50 nM | 1000 to 10000 nM | −15% | – | – | – | – | –
COc1ccc(S(=O)(=O)Nc2ccc(F)c(Nc3ncnc4cnc(-n5cnc6ccccc65)nc34)c2F)c(C)c1F [Example 116] | 1 to 10 nM | > 50 nM | < 500 nM | −1% | – | – | – | – | –
Cc1c(F)cccc1S(=O)(=O)Nc1ccc(F)c(Nc2ncnc3cnc(-n4nc(C(=O)N(C)Cc5ccncc5)c5ccccc54)nc23)c1F [Example 106] | < 1 nM | 10 to 50 nM | < 500 nM | −2.3% | – | – | – | – | –
O=S(=O)(Nc1ccc(F)c(Nc2ncnc3cnc(-n4cnc5ccccc54)nc23)c1F)c1cccc(Cl)c1C(F)(F)F [Example 156] | 1 to 10 nM | < 10 nM | 500 to 1000 nM | – | – | – | – | – | –
O=S(=O)(Nc1ccc(F)c(Nc2ncnc3cnc(-n4cnc5c(N6CC(CF)C6)cccc54)nc23)c1F)c1cccc(Cl)c1Cl [Example 140] | > 10 nM | 10 to 50 nM | < 500 nM | −16% | – | – | – | – | –
Cc1c(F)cccc1S(=O)(=O)Nc1ccc(F)c(Nc2ncnc3cnc(-n4cc(C(=O)N5CCC[C@H](O)C5)c5ccccc54)nc23)c1F [Example 103] | < 1 nM | < 10 nM | 500 to 1000 nM | −9.9% | – | – | – | – | –
